± gives the standard deviation of the averaged measurements.
Legend:
Test in all cases: relative viability vs DMSO control (72 h) (fraction); higher = more viable cells
RD-ES = test system: RD-ES
Method in brief: (§1)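 Sarcoma cell lines were grown in 384-well plates seeded toward 80–90% confluence and exposed 24 h later to serially diluted compound. After 72 h at 37 °C and 5% CO2, with 0.1% DMSO vehicle and a 5 µM positive control on the plates, ATPLite was read. Relative viability, given as percent growth averaged over up to triplicate wells, was rescaled so that 1 is full and 0 is none.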

SYO-1 = test system: SYO-1
Method in brief: as §1

SK-ES-1 = test system: SK-ES-1
Method in brief: as §1

G401 = test system: G401
Method in brief: as §1

VA-ES-BJ = test system: VA-ES-BJ
Method in brief: as §1

KHOS-240S = test system: KHOS-240S
Method in brief: as §1

HT1080 = test system: HT1080
Method in brief: as §1

RD = test system: RD
Method in brief: as §1

SW982 = test system: SW982
Method in brief: as §1

SW1353 = test system: SW1353
Method in brief: as §1

SK-LMS-1 = test system: SK-LMS-1
Method in brief: as §1

MES-SA = test system: MES-SA
Method in brief: as §1

CCCS(=O)(=O)N[C@H]1C[C@@H](N(C)c2ncnc3[nH]ccc23)C1 [Abrocitinib]
Details | relative viability
G401, 0.00017 µM | 1 ± 0.022
G401, 0.00051 µM | 0.981 ± 0.066
G401, 0.00152 µM | 0.994 ± 0.03
G401, 0.00457 µM | 1.04 ± 0.025
G401, 0.01372 µM | 1.01 ± 0.012
G401, 0.04115 µM | 0.981 ± 0.028
G401, 0.1235 µM | 0.984 ± 0.042
G401, 0.3704 µM | 1.01 ± 0.041
G401, 1.111 µM | 1.01 ± 0.031
G401, 3.333 µM | 0.956 ± 0.015
G401, 10 µM | 0.915 ± 0.014
HT1080, 0.00017 µM | 1.026 ± 0.0073
HT1080, 0.00051 µM | 1.02 ± 0.02
HT1080, 0.00152 µM | 1.046 ± 0.0076
HT1080, 0.00457 µM | 1.022 ± 0.0084
HT1080, 0.01372 µM | 1.05 ± 0.019
HT1080, 0.04115 µM | 1.05 ± 0.011
HT1080, 0.1235 µM | 1.026 ± 0.01
HT1080, 0.3704 µM | 1.04 ± 0.034
HT1080, 1.111 µM | 1.021 ± 0.0061
HT1080, 3.333 µM | 1.03 ± 0.028
HT1080, 10 µM | 1.05 ± 0.039
KHOS-240S, 0.00017 µM | 1.03 ± 0.011
KHOS-240S, 0.00051 µM | 1.03 ± 0.03
KHOS-240S, 0.00152 µM | 1.03 ± 0.044
KHOS-240S, 0.00457 µM | 1.04 ± 0.021
KHOS-240S, 0.01372 µM | 1.04 ± 0.038
KHOS-240S, 0.04115 µM | 1.04 ± 0.035
KHOS-240S, 0.1235 µM | 0.9912 ± 0.0098
KHOS-240S, 0.3704 µM | 1.02 ± 0.022
KHOS-240S, 1.111 µM | 1.03 ± 0.024
KHOS-240S, 3.333 µM | 1.05 ± 0.053
KHOS-240S, 10 µM | 0.988 ± 0.03
MES-SA, 0.00017 µM | 0.929 ± 0.014
MES-SA, 0.00051 µM | 0.904 ± 0.021
MES-SA, 0.00152 µM | 0.9 ± 0.017
MES-SA, 0.00457 µM | 0.9254 ± 0.0076
MES-SA, 0.01372 µM | 0.917 ± 0.011
MES-SA, 0.04115 µM | 0.932 ± 0.039
MES-SA, 0.1235 µM | 0.922 ± 0.013
MES-SA, 0.3704 µM | 0.942 ± 0.027
MES-SA, 1.111 µM | 0.912 ± 0.02
MES-SA, 3.333 µM | 0.933 ± 0.029
MES-SA, 10 µM | 0.893 ± 0.024
RD, 0.00017 µM | 1.06 ± 0.057
RD, 0.00051 µM | 1.12 ± 0.028
RD, 0.00152 µM | 1.11 ± 0.058
RD, 0.00457 µM | 1.09 ± 0.078
RD, 0.01372 µM | 1.09 ± 0.074
RD, 0.04115 µM | 1.11 ± 0.061
RD, 0.1235 µM | 1.09 ± 0.07
RD, 0.3704 µM | 1.08 ± 0.065
RD, 1.111 µM | 1.15 ± 0.039
RD, 3.333 µM | 1.1 ± 0.037
RD, 10 µM | 1.09 ± 0.022
RD-ES, 0.00017 µM | 0.988 ± 0.043
RD-ES, 0.00051 µM | 0.998 ± 0.033
RD-ES, 0.00152 µM | 0.985 ± 0.03
RD-ES, 0.00457 µM | 0.993 ± 0.031
RD-ES, 0.01372 µM | 1.02 ± 0.029
RD-ES, 0.04115 µM | 1.03 ± 0.043
RD-ES, 0.1235 µM | 1.03 ± 0.032
RD-ES, 0.3704 µM | 1.015 ± 0.0074
RD-ES, 1.111 µM | 1.03 ± 0.033
RD-ES, 3.333 µM | 1.03 ± 0.02
RD-ES, 10 µM | 1.03 ± 0.029
SK-ES-1, 0.00017 µM | 1.03 ± 0.06
SK-ES-1, 0.00051 µM | 1.06 ± 0.012
SK-ES-1, 0.00152 µM | 1.04 ± 0.024
SK-ES-1, 0.00457 µM | 1.03 ± 0.025
SK-ES-1, 0.01372 µM | 1.03 ± 0.03
SK-ES-1, 0.04115 µM | 1.02 ± 0.041
SK-ES-1, 0.1235 µM | 1.03 ± 0.019
SK-ES-1, 0.3704 µM | 1.03 ± 0.014
SK-ES-1, 1.111 µM | 1.02 ± 0.015
SK-ES-1, 3.333 µM | 1.03 ± 0.043
SK-ES-1, 10 µM | 1 ± 0.042
SK-LMS-1, 0.00017 µM | 1 ± 0.039
SK-LMS-1, 0.00051 µM | 1.03 ± 0.036
SK-LMS-1, 0.00152 µM | 1.01 ± 0.0099
SK-LMS-1, 0.00457 µM | 1.02 ± 0.028
SK-LMS-1, 0.01372 µM | 1.04 ± 0.019
SK-LMS-1, 0.04115 µM | 1.04 ± 0.05
SK-LMS-1, 0.1235 µM | 0.992 ± 0.047
SK-LMS-1, 0.3704 µM | 1.01 ± 0.038
SK-LMS-1, 1.111 µM | 1.01 ± 0.029
SK-LMS-1, 3.333 µM | 1.02 ± 0.02
SK-LMS-1, 10 µM | 1.02 ± 0.024
SW982, 0.00017 µM | 1.03 ± 0.049
SW982, 0.00051 µM | 1.04 ± 0.058
SW982, 0.00152 µM | 1.04 ± 0.047
SW982, 0.00457 µM | 1.04 ± 0.029
SW982, 0.01372 µM | 1.02 ± 0.018
SW982, 0.04115 µM | 1.06 ± 0.033
SW982, 0.1235 µM | 1.07 ± 0.026
SW982, 0.3704 µM | 1.044 ± 0.0066
SW982, 1.111 µM | 1.04 ± 0.037
SW982, 3.333 µM | 1.056 ± 0.0051
SW982, 10 µM | 1.06 ± 0.02
SW1353, 0.00017 µM | 0.96 ± 0.016
SW1353, 0.00051 µM | 0.966 ± 0.023
SW1353, 0.00152 µM | 0.929 ± 0.033
SW1353, 0.00457 µM | 0.96 ± 0.016
SW1353, 0.01372 µM | 1 ± 0.055
SW1353, 0.04115 µM | 0.9632 ± 0.0078
SW1353, 0.1235 µM | 0.977 ± 0.03
SW1353, 0.3704 µM | 0.999 ± 0.031
SW1353, 1.111 µM | 0.958 ± 0.052
SW1353, 3.333 µM | 0.991 ± 0.018
SW1353, 10 µM | 0.996 ± 0.01
SYO-1, 0.00017 µM | 0.984 ± 0.051
SYO-1, 0.00051 µM | 0.951 ± 0.023
SYO-1, 0.00152 µM | 0.956 ± 0.038
SYO-1, 0.00457 µM | 0.972 ± 0.051
SYO-1, 0.01372 µM | 0.952 ± 0.029
SYO-1, 0.04115 µM | 0.957 ± 0.042
SYO-1, 0.1235 µM | 0.974 ± 0.043
SYO-1, 0.3704 µM | 0.959 ± 0.032
SYO-1, 1.111 µM | 0.993 ± 0.039
SYO-1, 3.333 µM | 0.994 ± 0.061
SYO-1, 10 µM | 1.01 ± 0.065
VA-ES-BJ, 0.00017 µM | 1.02 ± 0.033
VA-ES-BJ, 0.00051 µM | 1.02 ± 0.07
VA-ES-BJ, 0.00152 µM | 1 ± 0.038
VA-ES-BJ, 0.00457 µM | 1.03 ± 0.02
VA-ES-BJ, 0.01372 µM | 1.02 ± 0.057
VA-ES-BJ, 0.04115 µM | 1.05 ± 0.052
VA-ES-BJ, 0.1235 µM | 1.03 ± 0.038
VA-ES-BJ, 0.3704 µM | 1.05 ± 0.063
VA-ES-BJ, 1.111 µM | 1.06 ± 0.051
VA-ES-BJ, 3.333 µM | 1.03 ± 0.033
VA-ES-BJ, 10 µM | 1.01 ± 0.029

Reference: the supplement of paper PMC10883282
